Results as given in patent US20060229433A1, “Modified antiviral peptides with increased activity and cell membrane affinity” (priority 2003, published 2006).
pIC50: −log10 of the molar value. Where “and” joins values, the source holds several entries; their conditions need not be identical. Identical values can stand only once.

Key:
Assay type in all cases: cell-based
[1] = system: HIV-1 NL 4-3; experiment: HIV-1 infection of C8166 cells (syncytia formation, p24 ELISA) with HIV-1 NL 4-3
Outline: (§1)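 C8166 T-cells were preincubated with peptide for 1 h at 37 °C, then exposed for 1 h to HIV-1 at 1000 TCID50/ml, washed, and cultured with peptide kept present throughout, with medium replaced at day 4. Infection was scored by syncytia formation and by supernatant p24 ELISA, with at least two runs in duplicate.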

[2] = system: HIV-1 NL 4-3; experiment: as above; set-up: key: ++, +, (+), (+)− and − represent decreasing numbers of syncitia formed; ++, +, (+), (+)− and − represent decreasing numbers of syncitia formed; ++, +, (+), (+)− and − represent decreasing numbers of syncitia formed; ++, +, (+), (+)− and − represent decreasing numbers of syncitia formed; ++, +, (+), (+)− and − represent decreasing numbers of syncitia formed
Outline: as §1

[3] = system: HIV-1 NDK; experiment: HIV-1 infection of C8166 cells (syncytia formation, p24 ELISA) with HIV-1 NDK; set-up: key to syncitia formed, Day 4 / syncitia formed, Day 5 / syncitia formed, Day 6 / syncitia formed, Day 7: ++, +, (+), (+)− and − represent decreasing numbers of syncitia formed; ++, +, (+), (+)− and − represent decreasing numbers of syncitia formed; ++, +, (+), (+)− and − represent decreasing numbers of syncitia formed; ++, +, (+), (+)− and − represent decreasing numbers of syncitia formed; ++, +, (+), (+)− and − represent decreasing numbers of syncitia formed; conditions: for P 24: P 24 after Day 7
Outline: as §1

[4] = C8166 cells, HIV-1 subtype B NL 4-3, Table 9, two lines = tested twice, 8 days apart

## C[C@H](NC(=O)[C@H](CCCNC(=N)N)NC(=O)CNC(=O)[C@@H]1CCCN1C(=O)CN)C(=O)N[C@@H](Cc1ccccc1)C(=O)NCCCC[C@H](NC(=O)[C@H](Cc1ccccc1)NC(=O)[C@H](C)NC(=O)[C@H](CCCNC(=N)N)NC(=O)CNC(=O)[C@@H]1CCCN1C(=O)CN)C(=O)NCCCC[C@H](NC(=O)[C@H](CCCCNC(=O)[C@H](Cc1ccccc1)NC(=O)[C@H](C)NC(=O)[C@H](CCCNC(=N)N)NC(=O)CNC(=O)[C@@H]1CCCN1C(=O)CN)NC(=O)[C@H](Cc1ccccc1)NC(=O)[C@H](C)NC(=O)[C@H](CCCNC(=N)N)NC(=O)CNC(=O)[C@@H]1CCCN1C(=O)CN)C(=O)NCCCC[C@H](NC(=O)[C@H](CCCCNC(=O)[C@H](CCCCNC(=O)[C@H](Cc1ccccc1)NC(=O)[C@H](C)NC(=O)[C@H](CCCNC(=N)N)NC(=O)CNC(=O)[C@@H]1CCCN1C(=O)CN)NC(=O)[C@H](Cc1ccccc1)NC(=O)[C@H](C)NC(=O)[C@H](CCCNC(=N)N)NC(=O)CNC(=O)[C@@H]1CCCN1C(=O)CN)NC(=O)[C@H](CCCCNC(=O)[C@H](Cc1ccccc1)NC(=O)[C@H](C)NC(=O)[C@H](CCCNC(=N)N)NC(=O)CNC(=O)[C@@H]1CCCN1C(=O)CN)NC(=O)[C@H](Cc1ccccc1)NC(=O)[C@H](C)NC(=O)[C@H](CCCNC(=N)N)NC(=O)CNC(=O)[C@@H]1CCCN1C(=O)CN)C(=O)NCCC(=O)O [SPC3, (GPGRAF)8-K4-K2-K-βA-OH, reference compound]
[1]; 0.005 μM, Table 6
  Day 7 syncitia formed: ++/T
[1]; 0.01 μM, Table 6
  Day 7 syncitia formed: ++/T
[1]; 0.05 μM, Table 6
  Day 7 syncitia formed: ++/T
[1]; C8166 cells, HIV-1 subtype B NL 4-3, Table 3
  pIC50: 6.30
[1]; [4]
  pIC50: 6.30
  IC100: 5 µM
[1]; Day 4, 5 μM, Table 1
  P 24: NEG
[1]; Day 4, 5 μM, Table 2
  P 24: NEG
[1]; Day 7, 0.005 μM, Table 6
  P 24: 23810 pg/mL
[1]; Day 7, 0.01 μM, Table 6
  P 24: 23810 pg/mL
[1]; Day 7, 0.05 μM, Table 6
  P 24: 23810 pg/mL
[1]; Day 7, 0.1 μM, Table 6
  P 24: 17810 pg/mL and 19850 pg/mL
[1]; Day 7, 0.5 μM, Table 6
  P 24: 5173 pg/mL and 4840 pg/mL
[1]; Day 7, 2 μM, Table 1
  P 24: 7589 pg/mL and 14787 pg/mL
[1]; Day 7, 5 μM, Table 1
  P 24: NEG
[1]; Day 7, 5 μM, Table 2
  P 24: 288 pg/mL and 342 pg/mL
[1]; Day 7, 5 μM, Table 6
  P 24: 3 pg/mL
[2]; 0.005 μM, Table 6
  Day 4 syncitia formed: −
  Day 5 syncitia formed: +
  Day 6 syncitia formed: ++
[2]; 0.01 μM, Table 6
  Day 4 syncitia formed: −
  Day 5 syncitia formed: +
  Day 6 syncitia formed: ++
[2]; 0.05 μM, Table 6
  Day 4 syncitia formed: −
  Day 5 syncitia formed: +
  Day 6 syncitia formed: ++
[2]; 0.1 μM, Table 6
  Day 4 syncitia formed: −
  Day 5 syncitia formed: (+)
  Day 6 syncitia formed: + and ++
  Day 7 syncitia formed: ++
[2]; 0.5 μM, Table 6
  Day 4 syncitia formed: −
  Day 5 syncitia formed: −
  Day 6 syncitia formed: (+)
  Day 7 syncitia formed: +
[2]; 1 μM, Table 6
  Day 4 syncitia formed: −
  Day 5 syncitia formed: −
  Day 6 syncitia formed: −
  Day 7 syncitia formed: (+)
[2]; 2 μM, Table 1
  Day 4 syncitia formed: −
  Day 5 syncitia formed: (+) and (+)−
  Day 6 syncitia formed: +
  Day 7 syncitia formed: ++
[2]; 5 μM, Table 1
  Day 4 syncitia formed: −
  Day 5 syncitia formed: −
  Day 6 syncitia formed: −
  Day 7 syncitia formed: −
[2]; 5 μM, Table 6
  Day 4 syncitia formed: −
  Day 5 syncitia formed: −
  Day 6 syncitia formed: −
  Day 7 syncitia formed: −
[3]; 0.005 μM
  syncitia formed, Day 4: −
  syncitia formed, Day 5: +
  syncitia formed, Day 6: ++
  syncitia formed, Day 7: ++/T
  P 24: 23810 pg/mL
[3]; 0.01 μM
  syncitia formed, Day 4: −
  syncitia formed, Day 5: +
  syncitia formed, Day 6: ++
  syncitia formed, Day 7: ++/T
  P 24: 23810 pg/mL
[3]; 0.05 μM
  syncitia formed, Day 4: −
  syncitia formed, Day 5: +
  syncitia formed, Day 6: ++
  syncitia formed, Day 7: ++/T
  P 24: 23810 pg/mL
[3]; 0.1 μM
  syncitia formed, Day 4: −
  syncitia formed, Day 5: (+)
  syncitia formed, Day 6: + and ++
  syncitia formed, Day 7: ++
  P 24: 18810 pg/mL and 20850 pg/mL
[3]; 0.5 μM
  syncitia formed, Day 4: −
  syncitia formed, Day 5: −
  syncitia formed, Day 6: +
  syncitia formed, Day 7: ++
  P 24: 15173 pg/mL and 12840 pg/mL
[3]; 1 μM
  syncitia formed, Day 4: −
  syncitia formed, Day 5: −
  syncitia formed, Day 6: −
  syncitia formed, Day 7: (+)
[3]; 5 μM
  syncitia formed, Day 4: −
  syncitia formed, Day 5: −
  syncitia formed, Day 6: −
  syncitia formed, Day 7: −
[3]; HIV 1 NDK, Table 10
  pIC50: 6.22
  IC100: 5 µM
